# Source: ChEMBL document CHEMBL6078641, “Modulation of aryl hydrocarbon receptor activity by halogenated indoles” (Bioorg Med Chem, 2024)
# pEC50, pIC50, pKi: −log10 of the molar value.
# Experiments:
# LS174T [1] = assay: Cytotoxicity against human LS174T cells upto 200 uM incubated for 24 hrs by MTT assay; format: toxicity, cell-based
# [2] = Induction of CYP1A1 mRNA expression in human LS180 cells incubated for 4 hrs by chromatin immunoprecipitation assay; format: functional
# [3] = molecular target: T1, Aryl hydrocarbon receptor (Mus musculus, UniProt P30561); assay: Displacement of [3H]-TCDD from AhR in mouse Hepa1c1c7 cell cytosolic lysate at 50 uM by competitive binding assay relative to control; format: subcellular, Cytosol; conditions: Hepa-1c1c7, mouse, read-out: Activity
# T1 sequence (P30561 whole entry): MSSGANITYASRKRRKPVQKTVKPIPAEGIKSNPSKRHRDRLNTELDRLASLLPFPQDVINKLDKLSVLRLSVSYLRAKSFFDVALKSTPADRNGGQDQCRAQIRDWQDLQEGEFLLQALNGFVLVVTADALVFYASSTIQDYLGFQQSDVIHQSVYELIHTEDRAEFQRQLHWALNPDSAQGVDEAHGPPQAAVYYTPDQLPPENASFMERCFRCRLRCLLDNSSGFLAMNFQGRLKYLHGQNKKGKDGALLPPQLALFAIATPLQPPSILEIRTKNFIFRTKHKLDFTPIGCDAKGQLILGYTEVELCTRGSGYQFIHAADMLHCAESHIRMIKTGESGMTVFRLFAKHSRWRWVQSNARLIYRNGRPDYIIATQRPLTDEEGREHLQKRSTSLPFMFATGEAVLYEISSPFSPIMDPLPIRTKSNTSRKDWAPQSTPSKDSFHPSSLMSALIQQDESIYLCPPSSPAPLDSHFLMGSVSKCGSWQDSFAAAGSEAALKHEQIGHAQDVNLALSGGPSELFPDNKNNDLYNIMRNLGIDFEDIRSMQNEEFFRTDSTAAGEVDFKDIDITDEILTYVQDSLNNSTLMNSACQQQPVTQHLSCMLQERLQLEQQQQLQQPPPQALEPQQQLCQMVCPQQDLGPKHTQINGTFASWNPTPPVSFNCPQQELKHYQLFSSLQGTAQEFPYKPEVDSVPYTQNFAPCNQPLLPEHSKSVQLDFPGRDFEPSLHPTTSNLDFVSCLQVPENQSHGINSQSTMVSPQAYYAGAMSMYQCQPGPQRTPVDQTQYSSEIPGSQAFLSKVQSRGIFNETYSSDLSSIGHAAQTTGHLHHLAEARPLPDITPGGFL
# [4] = molecular target: T1, Aryl hydrocarbon receptor; assay: Displacement of [3H]-TCDD from AhR in mouse Hepa1c1c7 cell cytosolic lysate by competitive binding assay; format: subcellular, Cytosol; conditions: for Activity: mouse, cytosol, dose 0.1-100 µM
# [5] = molecular target: T2, Aryl hydrocarbon receptor (Homo sapiens, UniProt P35869); assay: Agonist activity at Luc-fused AhR (unknown origin) transcriptional activity expressed in human LS174T cells incubated for 24 hrs by luciferase reporter gene assay; format: cell-based
# T2 sequence (P35869 whole entry): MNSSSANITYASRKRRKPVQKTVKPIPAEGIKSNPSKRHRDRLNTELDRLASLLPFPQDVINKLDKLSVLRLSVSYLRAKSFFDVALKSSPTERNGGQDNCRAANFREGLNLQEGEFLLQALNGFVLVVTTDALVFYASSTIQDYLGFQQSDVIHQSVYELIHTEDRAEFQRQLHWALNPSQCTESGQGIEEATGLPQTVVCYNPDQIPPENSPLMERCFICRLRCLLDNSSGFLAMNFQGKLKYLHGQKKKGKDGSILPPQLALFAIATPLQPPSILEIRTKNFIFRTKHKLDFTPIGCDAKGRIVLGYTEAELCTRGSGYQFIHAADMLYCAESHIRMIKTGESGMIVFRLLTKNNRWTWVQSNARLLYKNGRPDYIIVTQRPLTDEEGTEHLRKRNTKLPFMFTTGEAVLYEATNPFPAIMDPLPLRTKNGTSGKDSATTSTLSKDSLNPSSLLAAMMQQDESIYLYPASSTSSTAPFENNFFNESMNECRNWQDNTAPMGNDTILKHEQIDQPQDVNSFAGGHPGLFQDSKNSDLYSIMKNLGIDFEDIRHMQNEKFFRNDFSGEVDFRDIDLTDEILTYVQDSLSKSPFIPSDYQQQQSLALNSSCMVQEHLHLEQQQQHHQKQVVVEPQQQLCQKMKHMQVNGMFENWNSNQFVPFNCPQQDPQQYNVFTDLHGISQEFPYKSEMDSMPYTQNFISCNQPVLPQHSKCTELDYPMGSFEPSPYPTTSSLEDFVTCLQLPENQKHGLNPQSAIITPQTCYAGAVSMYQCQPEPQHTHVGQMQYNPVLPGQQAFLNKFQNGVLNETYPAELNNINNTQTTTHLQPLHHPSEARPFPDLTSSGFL
# [6] = Induction of CYP1A1 mRNA expression in human LS180 cells at 25 uM incubated for 4 hrs by chromatin immunoprecipitation assay relative to control; format: functional
# [7] = molecular target: T2, Aryl hydrocarbon receptor; assay: Agonist activity at Luc-fused AhR (unknown origin) transcriptional activity expressed in human LS174T cells at 100 uM incubated for 4 hrs by luciferase reporter gene assay relative to control; format: cell-based; conditions: read-out: Activity
# [8] = molecular target: T2, Aryl hydrocarbon receptor; assay: Agonist activity at Luc-fused AhR (unknown origin) transcriptional activity expressed in human LS174T cells incubated for 4 hrs by luciferase reporter gene assay; format: cell-based
# LS174T [9] = assay: Cytotoxicity against human LS174T cells assessed as decrease in cell viability at 200 uM incubated for 24 hrs by MTT assay relative to control; format: toxicity, cell-based
# [10] = Induction of CYP1A1 mRNA expression in human LS180 cells assessed as fold increase at 100 uM incubated for 8 hrs by qRT-PCR analysis relative to control; format: functional
# [11] = Induction of CYP1A1 mRNA expression in human LS180 cells assessed as fold increase at 100 uM incubated for 24 hrs by qRT-PCR analysis relative to control; format: functional
SMILES,Activity (LS174T [1]),EC80 [2] [µM],activity at 100 µM [7] [%],pEC50 [8],also measured
Fc1ccc2cc[nH]c2c1,Non-toxic,–,–,–,–
Clc1cccc2cc[nH]c12,Non-toxic,–,–,–,–
O=C1Cc2ccc(Cl)cc2N1,Non-toxic,0.3,–,–,inhibition at 50 µM [3]: 50%; pIC50 [4]: 5.13; pKi [4]: 5.43; Activity [4]: Dose-dependent-effect
Brc1cccc2[nH]ccc12,Non-toxic,–,–,–,–
O=C1Cc2cccc(Cl)c2N1,Non-toxic,–,–,–,–
O=C1Cc2cc(Cl)ccc2N1,Non-toxic,–,–,–,–
O=C1Cc2ccc(Br)cc2N1,Non-toxic,33.1,68,5.60,inhibition at 50 µM [3]: 10%; pEC50 [5]: 4.73; Efficacy [6]: 12%; pIC50 [4]: < 4.00; Activity [4]: Dose-dependent-effect
Brc1ccc2[nH]ccc2c1,Non-toxic,–,108,5.17,pEC50 [5]: 4.24
Brc1ccc2cc[nH]c2c1,Non-toxic,4.1,–,–,pIC50 [4]: 4.36; pKi [4]: 4.66; Activity [4]: Dose-dependent-effect
Clc1ccc2cc[nH]c2c1,Non-toxic,–,92,5.37,pEC50 [5]: 4.09
Clc1ccc2[nH]ccc2c1,Non-toxic,–,30,4.62,pEC50 [5]: 4.11; Activity (LS174T [9]): 50%
Fc1ccc2[nH]ccc2c1,Non-toxic,–,–,–,–
Brc1cccc2cc[nH]c12,Non-toxic,5.5,–,–,inhibition at 50 µM [3]: > 70%
Fc1cccc2[nH]ccc12,Non-toxic,5.1,–,–,inhibition at 50 µM [3]: > 70%; pIC50 [4]: 4.74; pKi [4]: 5.04; Activity [4]: Dose-dependent-effect
O=C1Cc2cc(Br)ccc2N1,Non-toxic,4.7,–,–,inhibition at 50 µM [3]: 20%; pIC50 [4]: < 4.00; Activity [4]: Dose-dependent-effect
Fc1cccc2cc[nH]c12,Non-toxic,3.8,–,–,inhibition at 50 µM [3]: > 70%; pIC50 [4]: 4.66; pKi [4]: 4.96; Activity [4]: Dose-dependent-effect
O=C1Cc2cc(F)ccc2N1,Non-toxic,–,–,–,–
Clc1cccc2[nH]ccc12,Non-toxic,–,15,5.10,Activity (LS174T [9]): 50%
"Clc1cc2c(cc1Cl)Oc1cc(Cl)c(Cl)cc1O2 [2,3,7,8-TETRACHLORODIBENZO-P-DIOXIN]",–,–,–,–,fold change (FC) [10]: ~26; fold change (FC) [11]: ~92
c1ccc2[nH]ccc2c1 [INDOLE],Non-toxic,–,94,4.95,pEC50 [5]: 4.37
O=C1Cc2ccccc2N1 [OXINDOLE],Non-toxic,–,86,5.28,pEC50 [5]: 4.09
